Structures are written as SMILES. Some results are limits rather than exact numbers.

This experiment addresses T1, sodium-proton exchanger of subtype 3 (NHE3) (Homo sapiens, UniProt P48764).
T1 construct: expressed in transfected cells
T1 sequence (P48764 26-834): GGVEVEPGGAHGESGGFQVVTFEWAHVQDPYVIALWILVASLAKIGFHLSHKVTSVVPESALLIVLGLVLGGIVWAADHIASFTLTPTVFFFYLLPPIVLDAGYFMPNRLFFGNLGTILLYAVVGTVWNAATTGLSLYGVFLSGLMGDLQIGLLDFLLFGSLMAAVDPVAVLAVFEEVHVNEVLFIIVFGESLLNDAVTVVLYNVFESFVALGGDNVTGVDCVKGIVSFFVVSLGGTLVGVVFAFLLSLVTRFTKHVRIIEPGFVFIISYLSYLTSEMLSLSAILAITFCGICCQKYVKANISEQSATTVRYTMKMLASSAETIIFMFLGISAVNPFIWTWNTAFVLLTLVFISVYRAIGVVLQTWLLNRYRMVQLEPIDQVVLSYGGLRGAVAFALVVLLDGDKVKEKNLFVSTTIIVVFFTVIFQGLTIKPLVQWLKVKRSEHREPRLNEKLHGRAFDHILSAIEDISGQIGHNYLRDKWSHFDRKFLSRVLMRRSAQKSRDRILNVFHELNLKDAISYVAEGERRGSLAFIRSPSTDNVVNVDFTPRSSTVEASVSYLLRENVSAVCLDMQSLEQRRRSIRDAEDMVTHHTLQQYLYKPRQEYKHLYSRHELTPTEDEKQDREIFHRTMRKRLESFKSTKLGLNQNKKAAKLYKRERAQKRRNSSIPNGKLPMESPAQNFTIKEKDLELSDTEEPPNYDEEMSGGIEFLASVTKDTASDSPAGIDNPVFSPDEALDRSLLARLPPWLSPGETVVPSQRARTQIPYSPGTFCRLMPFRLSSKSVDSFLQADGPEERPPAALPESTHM
In words: Recovery of intracellular pH (pHi) after acidification in LAP1 cells stably expressing NHE3 (BCECF fluorescence, FLIPR). The format is cell-based. The note with it: LAP1 cells stably expressing NHE3; pH recovery after acidification; range 1 is % inhibition at 10 μM; read-out: Activity range (inhibitory effect on NHE3).

With `CS(=O)(=O)c1ccc(O[C@H]2c3cc(Cl)cc(Cl)c3C[C@@H]2N2CCCN(CCO)CC2)cc1` [Example 385, 2-{4-[trans-(1S,2S)-4,6-dichloro-1-(4-methanesulfonylphenoxy)indan-2-yl]-[1,4]diazepan-1-yl}-ethanol], the IC50 is below 1 µM. Take `NS(=O)(=O)c1ccc(OC2c3ccccc3CC2N2CC[C@@H](N3CCCC3)C2)cc1` (mixture of isomers) [Example 463, 4-(rac-trans-(1,2)-(R)-2-[1,3′]Bipyrrolidinyl-1′-ylindan-1-yloxy)benzenesulfonamide]: the IC50 lay in the range of 1 to 10 µM.

For `CS(=O)(=O)c1nccn1-c1ccc(O[C@H]2c3cc(Cl)cc(F)c3C[C@@H]2NC2CCCC2)c(F)c1` [Example 754, {trans-(1S,2S)-6-Chloro-4-fluoro-1-[2-fluoro-4-(2-methanesulfonyl-imidazol-1-yl)-phenoxy]-indan-2-yl}-cyclopentyl-amine], the IC50 was below 1 µM. Still for that read-out and setting: the value for `Cc1c(Cl)cccc1O[C@@H]1c2ccccc2C[C@H]1N1C[C@H]2CNC[C@H]2C1` (racemic) [Example 6, 2-[rac-trans-(1,2)-1-(3-chloro-2-methylphenoxy)indan-2-yl]octahydropyrrolo[3,4-c]pyrrole] was 1 to 10 µM. Same read-out and setting: the value for `Cc1nn(C)c(C)c1-c1ccc(O[C@H]2c3cc(Cl)cc(Cl)c3C[C@@H]2N2CC[C@@H](O)C2)cc1` [Example 124, (R)-1-{trans-(1S,2S)-4,6-dichloro-1-[4-(1,3,5-trimethyl-1H-pyrazol-4-yl)phenoxy]indan-2-yl}pyrrolidin-3-ol] was 1 to 10 µM; that for `CS(=O)(=O)c1ccc(O[C@H]2c3ccccc3C[C@@H]2N2CCC[C@@H](NCCC(F)(F)F)C2)cc1` [Example 220, {(R)-1-[trans-(1S,2S)-1-(4-methanesulfonylphenoxy)indan-2-yl]piperidin-3-yl}-(3,3,3-trifluoropropyl)amine] was below 1 µM; that for `CN(C1CCC1)[C@@H]1Cc2ccccc2[C@H]1Oc1ccc(S(C)(=O)=O)cc1` (racemic) [Example 734, Cyclobutyl-[rac-trans-(1,2)-1-(4-methanesulfonyl-phenoxy)-indan-2-yl]-methyl-amine] was 1 to 10 µM.

As to `Fc1ccc(O[C@H]2c3ccccc3C[C@@H]2N2CCCC2)c(-c2ccn[nH]2)c1` [Example 575, 5-[5-fluoro-2-(trans-(1S,2S)-2-pyrrolidin-1-ylindan-1-yloxy)phenyl]-1H-pyrazole], the inhibition at 10 µM lay in the range of 20 to 50%. Still for that read-out and setting: the value for `CS(=O)(=O)c1ccc(O[C@H]2c3cc(Cl)ccc3C[C@@H]2N2CCN(CCO)CC2)cc1` (racemic) [Example 384, 2-{4-[rac-trans-(1,2)-6-chloro-1-(4-methanesulfonylphenoxy)indan-2-yl]piperazin-1-yl}-ethanol] was 20 to 50%.

Take `N[C@@H]1CCCN([C@@H]2Cc3ccccc3[C@H]2Oc2ccc3oc(=O)sc3c2)C1` (racemic) [Example 579, 5-[rac-trans-(1,2)-2-((R)-3-aminopiperidin-1-yl)indan-1-yloxy]benzo[1,3]oxathiol-2-one]: the IC50 lay within 1 to 10 µM.

On to `NC1CCN([C@@H]2Cc3ccccc3[C@H]2Oc2ccc(S(N)(=O)=O)c(Cl)c2Cl)C1` (mixture of isomers) [Example 542, 4-[rac-trans-(1,2)-2-(3-aminopyrrolidin-1-yl)indan-1-yloxy]-2,3-dichlorobenzenesulfonamide], for which the IC50 is below 1 µM. As for `FC(F)(F)c1cnccc1O[C@H]1c2ccccc2C[C@@H]1CN1CCCC1` (racemic) [Example 462, 4-(2-pyrrolidin-1-ylmethylindan-1-yloxy)-3-trifluoromethylpyridine], the inhibition at 10 µM was in the range of 20 to 50%. For `N[C@@H]1CCCN([C@H]2CCc3ccccc3[C@@H]2Oc2ccc3ccncc3c2)C1` (racemic) [Example 84, (R)-1-[rac-trans-(1,2)-1-(isoquinolin-7-yloxy)-1,2,3,4-tetrahydronaphthalen-2-yl]piperidin-3-ylamine], the IC50 is below 1 µM.
